Results as given in patent publication US10167276B2, “Compounds and methods for inhibiting JAK” (Dizal (Jiangsu) Pharmaceutical Co., Ltd., priority 2015, dated 2019).

Legend:
[1] = system: STAT3 phosphorylation in NCI-H1975 cells; experiment: Cellular pSTAT3 assay in NCI-H1975 cells; type: cell-based; details: Homo sapiens, 2 hours with compound
How it was run: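 NCI-H1975 cells (RPMI, 10% FBS) were treated with compound for 2 hours at 37° C., then lysed. Phospho-STAT3 in lysates was quantified by sandwich ELISA (STAT3 capture, phospho-STAT3 detection, HRP secondary, TMB), read at 450 nm.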

JAK1 = JAK1 (Homo sapiens (Human), UniProt P23458); experiment: Enzyme inhibition studies, recombinant JAK1 (Caliper peptide phosphorylation); type: biochemical; details: recombinant JAK1 (amino acids 866-1154); assayed at ATP Km (55 μM) and 5 mM ATP, table does not say which
Sequence of JAK1 (P23458 866-1154): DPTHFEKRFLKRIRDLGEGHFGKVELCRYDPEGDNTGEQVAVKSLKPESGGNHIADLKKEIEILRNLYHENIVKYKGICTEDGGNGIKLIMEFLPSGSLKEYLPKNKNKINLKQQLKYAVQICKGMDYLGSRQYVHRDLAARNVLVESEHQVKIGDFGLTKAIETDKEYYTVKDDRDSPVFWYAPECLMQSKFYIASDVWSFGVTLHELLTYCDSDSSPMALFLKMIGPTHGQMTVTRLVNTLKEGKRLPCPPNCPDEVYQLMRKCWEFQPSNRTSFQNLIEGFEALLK
Method: (§1) Enzyme inhibition studies were performed using recombinant JAK1 (amino acids 866-1154, Life Technologies, #PV4774, Carlsbad, Calif.), JAK2 (amino acids 831-1132), or JAK3 (amino acids 781-1124) under buffer conditions of 50 mM HEPES pH 7.3, 1 mM DTT, 0.01% Tween® 20, 50 μg/mL BSA, and 10 mM MgCl2. JAK enzyme was expressed as an N-terminal GST fusion in insect cells and purified by glutathione-affinity and size-exclusion chromatographies. […] Phosphorylated and unphosphorylated peptides were separated and quantified by a Caliper LC3000 system (Caliper Life Sciences, MA) for calculating percent inhibition.

JAK2 = JAK2 (Homo sapiens (Human), UniProt O60674); experiment: Enzyme inhibition studies, recombinant JAK2 (Caliper peptide phosphorylation); type: biochemical; details: recombinant JAK2 (amino acids 831-1132); assayed at ATP Km (15 μM) and 5 mM ATP, table does not say which
Sequence of JAK2 (O60674 831-1132): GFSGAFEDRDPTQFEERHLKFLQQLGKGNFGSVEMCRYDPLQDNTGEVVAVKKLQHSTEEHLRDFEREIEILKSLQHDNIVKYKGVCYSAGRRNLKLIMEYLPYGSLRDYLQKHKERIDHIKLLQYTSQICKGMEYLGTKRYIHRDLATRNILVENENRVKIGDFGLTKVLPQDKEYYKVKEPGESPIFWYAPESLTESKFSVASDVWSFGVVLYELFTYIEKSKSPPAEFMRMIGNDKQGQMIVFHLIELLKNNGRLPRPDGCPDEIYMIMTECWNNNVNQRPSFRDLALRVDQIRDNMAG
Method: as §1

JAK3 = JAK3 (Homo sapiens (Human), UniProt P52333); experiment: Enzyme inhibition studies, recombinant JAK3 (Caliper peptide phosphorylation); type: biochemical; details: recombinant JAK3 (amino acids 781-1124); assayed at ATP Km (3 μM) and 5 mM ATP, table does not say which
Sequence of JAK3 (P52333 781-1124): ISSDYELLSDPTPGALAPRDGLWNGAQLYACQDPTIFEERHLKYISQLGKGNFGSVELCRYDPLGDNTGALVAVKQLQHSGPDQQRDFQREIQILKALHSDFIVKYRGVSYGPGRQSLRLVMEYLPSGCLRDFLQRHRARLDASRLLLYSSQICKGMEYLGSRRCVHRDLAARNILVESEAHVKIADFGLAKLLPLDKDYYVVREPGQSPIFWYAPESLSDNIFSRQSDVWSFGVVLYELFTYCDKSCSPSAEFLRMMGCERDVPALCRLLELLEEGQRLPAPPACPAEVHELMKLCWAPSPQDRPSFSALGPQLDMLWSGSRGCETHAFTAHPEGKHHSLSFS
Method: as §1

Row | Structure (SMILES) | IC50 [1] [nM] | further results
1 | CC[C@H](C(=O)Nc1cccc2c(-c3ccnc(Nc4cn(C)nc4OC)n3)c[nH]c12)N1CCN(C)CC1 [Example 47, (2R)-N-(3-{2-[(3-Methoxy-1-methyl-1H-pyrazol-4-yl)amino]pyrimidin-4-yl}-1H-indol-7-yl)-2-(4-methylpiperazin-1-yl)butanamide] | 136 | –
2 | CC[C@@H](C(=O)Nc1cccc2c(-c3ccnc(Nc4cn(C)nc4OC)n3)c[nH]c12)N1CCN(C)CC1 [Example 48, (2S)-N-(3-{2-[(3-Methoxy-1-methyl-1H-pyrazol-4-yl)amino]pyrimidin-4-yl}-1H-indol-7-yl)-2-(4-methylpiperazin-1-yl)butanamide] | 863 | –
3 | CC[C@H](C(=O)Nc1cccc2c(-c3nc(Nc4cn(C)nc4C)ncc3F)c[nH]c12)N1CCN(C)CC1 [Example 49, (2R)-N-(3-{2-[(1,3-dimethyl-1H-pyrazol-4-yl)amino]-5-fluoropyrimidin-4-yl}-1H-indol-7-yl)-2-(4-methylpiperazin-1-yl)butanamide] | 75.1 | –
4 | CC[C@@H](C(=O)Nc1cccc2c(-c3nc(Nc4cn(C)nc4C)ncc3F)c[nH]c12)N1CCN(C)CC1 [Example 50, (2S)-N-{3-[2-[(1,3-dimethyl-1H-pyrazol-4-yl)amino]-5-fluoropyrimidin-4-yl}-1H-indol-7-yl)-2-(4-methylpiperazin-1-yl)butanamide] | 999 | –
5 | CC[C@H](C(=O)Nc1cccc2c(-c3nc(Nc4cn(C)nc4OC)ncc3F)c[nH]c12)N1CCN(C)CC1 [Example 51, (2R)-N-(3-{5-fluoro-2-[(3-methoxy-1-methyl-1H-pyrazol-4-yl)amino]pyrimidin-4-yl}-1H-indol-7-yl)-2-(4-methylpiperazin-1-yl)butanamide] | 111 | –
6 | CC[C@@H](C(=O)Nc1cccc2c(-c3nc(Nc4cn(C)nc4OC)ncc3F)c[nH]c12)N1CCN(C)CC1 [Example 52, (2S)-N-(3-{5-fluoro-2-[(3-methoxy-1-methyl-1H-pyrazol-4-yl)amino]pyrimidin-4-yl}-1H-indol-7-yl)-2-(4-methylpiperaizn-1-yl)butanamide] | 548 | –
7 | COC[C@H](C(=O)Nc1cccc2c(-c3nc(Nc4cn(C)nc4C)ncc3F)c[nH]c12)N1CCN(C)CC1 [Example 53, (2R)-N-(3-{2-[(1,3-dimethyl-1H-pyrazol-4-yl)amino]-5-fluoropyrimidin-4-yl}-1H-indol-7-yl)-3-methoxy-2-(4-methylpiperazin-1-yl)propanamide] | 56.6 | –
8 | COC[C@@H](C(=O)Nc1cccc2c(-c3nc(Nc4cn(C)nc4C)ncc3F)c[nH]c12)N1CCN(C)CC1 [Example 54, (2S)-N-{3-[2-[(1,3-dimethyl-1H-pyrazol-4-yl)amino]-5-fluoropyrimidin-4-yl}-1H-indol-7-yl)-3-methoxy-2-(4-methylpiperazin-1-yl)propanamide] | > 3000 | –
9 | CCc1nn(C)cc1Nc1ncc(C)c(-c2c[nH]c3c(NC(=O)[C@@H](C)N4CCN(C)CC4)cccc23)n1 [Example 55, (2R)-N-(3-{2-[(3-ethyl-1-methyl-1H-pyrazol-4-yl)amino]-5-methylpyrimidin-4-yl}-1H-indol-7-yl)-2-(4-methylpiperazin-1-yl)propanamide] | 116 | –
10 | Cc1nn(C)cc1Nc1ncc(F)c(-c2c[nH]c3c(NC(=O)[C@@H](C)N4CCN(C)CC4)cccc23)n1 [Example 56, (2R)-N-(3-{2-[(1,3-dimethyl-1H-pyrazol-4-yl)amino]-5-fluoropyrimidin-4-yl}-1H-indol-7-yl)-2-(4-methylpiperaizn-1-yl)propanamide] | 126 | –
11 | Cc1nn(C)cc1Nc1nccc(-c2c[nH]c3c(NC(=O)[C@@H](C)N4CCN(C)CC4)cccc23)n1 [Example 57, (2R)-N-(3-{2-[(1,3-dimethyl-1H-pyrazol-4-yl)amino]pyrimidin-4-yl}-1H-indol-7-yl)-2-(4-methylpiperaizn-1-yl)propanamide] | 155 | –
12 | CCn1cc(Nc2ncc(C)c(-c3c[nH]c4c(NC(=O)[C@@H](C)N5CCN(C)CC5)cccc34)n2)c(OC)n1 [Example 58, (2R)-N-(3-{2-[(1-ethyl-3-methoxy-1H-pyrazol-4-yl)amino]-5-methylpyrimidin-4-yl}-1H-indol-7-yl)-2-(4-methylpiperazin-1-yl)propanamide] | 106 | –
13 | CCOc1nn(CC)cc1Nc1ncc(C)c(-c2c[nH]c3c(NC(=O)[C@@H](C)N4CCN(C)CC4)cccc23)n1 [Example 59, (2R)-N-(3-{2-[(3-ethoxy-1-ethyl-1H-pyrazol-4-yl)amino]-5-methylpyrimidin-4-yl}-1H-indol-7-yl)-2-(4-methylpiperazin-1-yl)propanamide] | 245 | –
14 | COC[C@H](C(=O)Nc1cccc2c(-c3ccnc(Nc4cn(C)nc4OC)n3)c[nH]c12)N1CCN(C)CC1 [Example 60, (2R)-3-Methoxy-N-(3-{2-[(3-methoxy-1-methyl-1H-pyrazol-4-yl)amino]pyrimidin-4-yl}-1H-indol-7-yl)-2-(4-methylpiperazin-1-yl)propanamide] | 97.3 | –
15 | COC[C@@H](C(=O)Nc1cccc2c(-c3ccnc(Nc4cn(C)nc4OC)n3)c[nH]c12)N1CCN(C)CC1 [Example 61, (2S)-3-Methoxy-N-(3-{2-[(3-methoxy-1-methyl-1H-pyrazol-4-yl)amino]pyrimidin-4-yl}-1H-indol-7-yl}-2-(4-methylpiperazin-1-yl)propanamide] | 1270 | –
16 | CCOc1nn(C)cc1Nc1ncc(C)c(-c2c[nH]c3c(NC(=O)[C@@H](CC)N4CCN(C)CC4)cccc23)n1 [Example 62, (2R)-N-(3-{2-[(3-ethoxy-1-methyl-1H-pyrazol-4-yl)amino]-5-methylpyrimidin-4-yl}-1H-indol-7-yl)-2-(4-methylpiperazin-1-yl)butanamide] | 104 | –
17 | CCOc1nn(C)cc1Nc1ncc(C)c(-c2c[nH]c3c(NC(=O)[C@H](CC)N4CCN(C)CC4)cccc23)n1 [Example 63, (2S)-N-(3-{2-[(3-ethoxy-1-methyl-1H-pyrazol-4-yl)amino]-5-methypyrimidin-4-yl}-1H-indol-7-yl)-2-(4-methylpiperazin-1-yl)butanamide] | 433 | –
18 | CCOc1nn(C)cc1Nc1ncc(C)c(-c2c[nH]c3c(NC(=O)[C@@H](COC)N4CCN(C)CC4)cccc23)n1 [Example 64, (2R)-N-(3-{2-[(3-ethoxy-1-methyl-1H-pyrazol-4-yl)amino]-5-methylpyrimidin-4-yl}-1H-indol-7-yl)-3-methoxy-2-(4-methylpiperazin-1-yl)propanamide] | 112 | IC50 (JAK1): < 5 nM; IC50 (JAK2): 2040 nM; IC50 (JAK3): > 30000 nM
19 | CCOc1nn(C)cc1Nc1ncc(C)c(-c2c[nH]c3c(NC(=O)[C@H](COC)N4CCN(C)CC4)cccc23)n1 [Example 65, (2S)-N-(3-{2-[(3-ethoxy-1-methyl-1H-pyrazol-4-yl)amino]-5-methylpyrimidin-4-yl}-1H-indol-7-yl)-3-methoxy-2-(4-methylpiperazin-1-yl)propanamide] | 1030 | IC50 (JAK1): 2530 nM; IC50 (JAK2): > 30000 nM; IC50 (JAK3): > 30000 nM
